The source of these data is US4824955A, “Selenium oxy chloride-pyridine or bipyridine complexes” (Nippon Kayaku Kabushiki Kaisha, priority 1985, dated 1989).

Values joined by “and” are separate entries in the source; they are usually repeats but may differ in a detail not shown here. Equal values may be shown once. Read-outs that look alike come from different tables or passages of the source.

One data set concerns Enrlich carcinoma. The data set can be described thus: Antineoplastic activity against Enrlich carcinoma (life prolongation rate). The data set is classed as in vivo, 5-week-old ICR mice (male). The arrangement: response vs control in vivo: dose or concentration left out as unconfirmed. Conditions: for response vs control in vivo at 2 mg/kg / response vs control in vivo at 4 mg/kg / response vs control in vivo at 8 mg/kg / response vs control in vivo at 16 mg/kg / response vs control in vivo: Mus musculus, ip, 1440 h, read-out: Life prolongation rate (T/C %).

A short description of another data set: in vivo. The conditions noted are these: mouse, ip, LD50, intraperitoneal, once a day, 7 days, mice.
[1] abbreviates: 2.0 mg/kg/day, intraperitoneal, once a day, 7 days.
[2] abbreviates: 8.0 mg/kg/day, intraperitoneal, once a day, 7 days.
Where [3] appears, read: […], intraperitoneal, (Note 1) administered for 4 days.
Where [4] appears, read: intraperitoneal, once a day, 7 days.
[5] abbreviates: […], intraperitoneal, once a day, 7 days.

Method for Enrlich carcinoma: Approximately 10^6 cells/0.2 ml of Enrlich carcinoma were inoculated into the abdominal cavity of each of the 5-week-old ICR mice (male) used for the test, and the test compounds were administered intraperitoneally to the mice of the treated group once a day for a period of 7 days, starting from the day after said inoculation. The mice of the control group was administered with a saline solution in the same way. Observation of the animals of both groups was continued for 60 days after the administration, and the life prolongation rate (T/C%, T/C×100) was determined from the average duration (days) of life of the mice of the treated group (T) and that of the mice of the control group (C).

Take `c1ccncc1` [Compound 1-1, Selenium oxybromide-pyridine (1:2) complex]: in the data set with Enrlich carcinoma (mouse, in vivo), the “Life prolongation rate (T/C %)” value was 165% and 173% and 181% and 130%. In the data set “in vivo”, the LD50 fell in the range of 8 to 16 mg/kg.

Consider `Cc1ccccn1` [Compound 1-2, Selenium oxychloride-2-picoline (1:2) complex], for which, in the data set on Enrlich carcinoma, the response vs control in vivo at 2 mg/kg turned out to be 176%, the response vs control in vivo at 4 mg/kg came out at 169%, the response vs control in vivo at 8 mg/kg came to 194% and the response vs control in vivo at 16 mg/kg turned out to be 75%. In “in vivo”, this molecule yielded an LD50 of 8 to 16 mg/kg.

In the case of `CCc1ccncc1` [Compound 1-6, Selenium oxychloride-4-ethylpyridine (1:2) complex], the response vs control in vivo at 2 mg/kg in the data set on Enrlich carcinoma (setting [1]) was determined as 173%. Also, the response vs control in vivo at 8 mg/kg in the data set on Enrlich carcinoma (setting [2]) was 244%. In addition, in the data set with Enrlich carcinoma (setting [3]), the response vs control in vivo at 16 mg/kg was found to be 103%. Also, the response vs control in vivo in the data set with Enrlich carcinoma (setting [4]) turned out to be 209%. In “in vivo”, this molecule gave an LD50 of 8 to 16 mg/kg.

Take `CC(C)c1ccncc1` [Compound 1-7, Selenium oxychloride-4-isopropylpyridine (1:2) complex]: the response vs control in vivo at 8 mg/kg in the data set on Enrlich carcinoma (setting [2]) came to 256%. In the data set on Enrlich carcinoma (setting [3]), the response vs control in vivo at 16 mg/kg stood at 201%. Also, the response vs control in vivo with Enrlich carcinoma (setting [4]) stood at 222%. The molecule further came in with an LD50 in “in vivo” of 8 to 16 mg/kg.

For the molecule `c1ccc(-c2cccnc2)cc1` [Compound 1-10, Selenium oxychloride-3-phenylpyridine (1:2) complex], the response vs control in vivo at 2 mg/kg in the data set with Enrlich carcinoma (setting [1]) amounted to 251%. The response vs control in vivo at 8 mg/kg with Enrlich carcinoma (setting [2]) was found to be 203%. For the same molecule, in the data set on Enrlich carcinoma (setting [5]), the response vs control in vivo at 16 mg/kg was found to be 199%. Also, the response vs control in vivo with Enrlich carcinoma (setting [4]) was determined as 192%. The LD50 in “in vivo” is above 16 mg/kg.

`c1ccc(-c2ccncc2)cc1` [Compound 1-11, Selenium oxychloride-4-phenylpyridine (1:2) complex]: in the data set on Enrlich carcinoma (setting [1]), the response vs control in vivo at 2 mg/kg is 166%. In addition, the response vs control in vivo at 8 mg/kg with Enrlich carcinoma (setting [2]) was 230%. The response vs control in vivo at 16 mg/kg in the data set on Enrlich carcinoma (setting [5]) came out at 221%. In “in vivo”, the LD50 was above 16 mg/kg.

Turning to `Fc1cccnc1` [Compound 1-12, Selenium oxychloride-3-fluoropyridine (1:2) complex], the response vs control in vivo at 2 mg/kg in the data set with Enrlich carcinoma (setting [1]) worked out at 194%. The response vs control in vivo at 8 mg/kg in the data set with Enrlich carcinoma (setting [2]) was 201%. In addition, the response vs control in vivo at 16 mg/kg in the data set on Enrlich carcinoma ([…], intraperitoneal, (Note 2) administered for 2 days) turned out to be 140%. Moreover, in the data set on Enrlich carcinoma (setting [4]), the response vs control in vivo was determined as 219%. Moreover, the LD50 in the data set “in vivo” was in the range of 8 to 16 mg/kg.

For `Clc1cccnc1` [Compound 1-13, Selenium oxychloride-3-chloropyridine (1:2) complex], in the data set on Enrlich carcinoma, the response vs control in vivo at 2 mg/kg amounted to 142%, the response vs control in vivo at 4 mg/kg stood at 172%, the response vs control in vivo at 8 mg/kg is 158% and the response vs control in vivo at 16 mg/kg turned out to be 84%. Moreover, the LD50 in the data set “in vivo” fell in the range of 8 to 16 mg/kg.

In the case of `Brc1cccnc1` [Compound 1-14, Selenium oxychloride-3-bromopyridine (1:2) complex], in the data set on Enrlich carcinoma (setting [1]), the response vs control in vivo at 2 mg/kg amounted to 163%. In addition, in the data set with Enrlich carcinoma (setting [2]), the response vs control in vivo at 8 mg/kg turned out to be 202%. Besides, in the data set with Enrlich carcinoma (setting [3]), the response vs control in vivo at 16 mg/kg is 147%. The response vs control in vivo with Enrlich carcinoma (setting [4]) stood at 179%. The LD50 in the data set “in vivo” lay in the range of 8 to 16 mg/kg.

For the molecule `Clc1cncc(Cl)c1` [Compound 1-15, Selenium oxychloride-3,5-dichlorpyridine (1:2) complex], in the data set on Enrlich carcinoma (setting [1]), the response vs control in vivo at 2 mg/kg came to 154%. In addition, the response vs control in vivo at 8 mg/kg in the data set with Enrlich carcinoma (setting [2]) worked out at 191%. Further, the response vs control in vivo at 16 mg/kg in the data set on Enrlich carcinoma (setting [3]) amounted to 162%. Also, the response vs control in vivo in the data set with Enrlich carcinoma (setting [4]) turned out to be 174%. In the data set “in vivo”, this molecule showed an LD50 of 8 to 16 mg/kg.

Take `Cn1cncc1Br` [Compound 1-28, Selenium oxychloride-1-methyl-5-bromoimidazole (1:2) complex]: in the data set on Enrlich carcinoma (setting [2]), the response vs control in vivo at 8 mg/kg worked out at 215%. Further, the response vs control in vivo at 16 mg/kg with Enrlich carcinoma (setting [3]) was found to be 264%. Further, the response vs control in vivo in the data set on Enrlich carcinoma (setting [4]) came to 217%. The LD50 in “in vivo” was above 16 mg/kg.

Take `Cn1c(=O)c2c(ncn2Cc2ccccc2)n(C)c1=O` [Compound 1-33, Selenium oxychloride-N--benzyltheophylline (1:2) complex]: the response vs control in vivo at 2 mg/kg in the data set on Enrlich carcinoma (setting [1]) is 138%. Besides, in the data set on Enrlich carcinoma (setting [2]), the response vs control in vivo at 8 mg/kg stood at 214%. The response vs control in vivo at 16 mg/kg in the data set with Enrlich carcinoma (setting [5]) came to 205%. In the data set “in vivo”, the LD50 is above 16 mg/kg.
